Data published in patent publication US7473704B2, “Cyclohexyl prostaglandin analogs as EP4-receptor agonists” (Allergan, Inc., priority 2003, dated 2009).

Experiments:
human EP4 receptor [1] = molecular target: T1, human EP4 receptor (Homo sapiens, UniProt P35408); test: Recombinant human EP4 receptor binding assay (HEK-293-EBNA stable transfectants); details: read-out: Binding Data (IC50 in nM) hEP4
T1 construct: expressed in transfected cells
Experimental: (§1) Human Recombinant EP4 Receptor: Stable Transfectants.
(§2) Plasmids encoding the human EP4 receptor were prepared by cloning the respective coding sequences into the eukaryotic expression vector pCEP4 (Invitrogen). The pCEP4 vector contains an Epstein Barr virus (EBV) origin of replication, which permits episomal replication in primate cell lines expressing EBV nuclear antigen (EBNA-1). It also contains a hygromycin resistance gene that is used for eukaryotic selection. The cells employed for stable transfection were human embryonic kidney cells (HEK-293) that were transfected with and express the EBNA-1 protein. These HEK-293-EBNA cells (Invitrogen) were grown in medium containing Geneticin (G418) to maintain expression of the EBNA-1 protein. HEK-293 cells were grown in DMEM with 10% fetal bovine serum (FBS), 250 μg ml^−1 G418 (Life Technologies) and 200 μg ml^−1 gentamicin or penicillin/streptomycin.
(§3) For transfection, the cells were grown to 50-60% confluency on 10 cm plates. The plasmid pCEP4 incorporating cDNA inserts for the respective human prostanoid receptor (20 μg) was added to 500 μl of 250 mM CaCl2. HEPES buffered saline×2 (2×HBS, 280 mM NaCl, 20 mM HEPES acid, 1.5 mM Na2 HPO4, pH 7.05-7.12) was then added dropwise to a total of 500 μl, with continuous vortexing at room temperature. After 30 min, 9 ml DMEM were added to the mixture. The DNA/DMEM/calcium phosphate mixture was then added to the cells, which had been previously rinsed with 10 ml PBS. The cells were then incubated for 5 hr at 37° C. in humidified 95% air/5% CO2. The calcium phosphate solution was then removed and the cells were treated with 10% glycerol in DMEM for 2 min. The glycerol solution was then replaced by DMEM with 10% FBS. The cells were incubated overnight and the medium was replaced by DMEM/10% FBS containing 250 μg ml^−1 G418 and penicillin/streptomycin. The following day hygromycin B was added to a final concentration of 200 μg ml^−1.
(§4) Ten days after transfection, hygromycin B resistant clones were individually selected and transferred to a separate well on a 24 well plate. At confluence each clone was transferred to one well of a 6 well plate, and then expanded in a 10 cm dish. Cells were maintained under continuous hygromycin selection until use.
(§5) Certain of the above compounds were tested for activity in the recombinant human EP4 receptor assay described above and the results are reported in Table 1, below.

human EP4 receptor [2] = molecular target: T1, human EP4 receptor; test: Recombinant human EP4 receptor functional assay (HEK-293-EBNA stable transfectants); assay type: cell-based; details: read-out: Functional Data (EC50 in nM) hEP4
Experimental: as §1, §2, §3, §4, §5

T1 sequence (P35408 whole entry): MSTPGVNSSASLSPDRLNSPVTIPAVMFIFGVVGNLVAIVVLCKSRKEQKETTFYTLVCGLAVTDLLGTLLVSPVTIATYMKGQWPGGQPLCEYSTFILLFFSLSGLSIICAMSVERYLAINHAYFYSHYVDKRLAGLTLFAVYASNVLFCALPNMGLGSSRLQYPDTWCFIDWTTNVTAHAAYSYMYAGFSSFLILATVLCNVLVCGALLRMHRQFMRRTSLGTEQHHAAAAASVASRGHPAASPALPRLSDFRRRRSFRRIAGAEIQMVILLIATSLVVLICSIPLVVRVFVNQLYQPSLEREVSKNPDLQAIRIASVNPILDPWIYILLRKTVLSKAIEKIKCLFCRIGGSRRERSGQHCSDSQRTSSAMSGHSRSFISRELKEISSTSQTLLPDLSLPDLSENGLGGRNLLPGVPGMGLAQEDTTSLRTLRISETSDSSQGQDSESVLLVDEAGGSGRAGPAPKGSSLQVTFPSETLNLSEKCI

IC50 (human EP4 receptor [1]) [nM] | EC50 (human EP4 receptor [2]) [nM] | SMILES
600 | 387 | CCCCC[C@H](O)CC[C@H]1[C@H](O)CCC(=O)[C@@H]1CCCCCCC(=O)O [Example 9, 7-[(1R,2R,3R)-3-Hydroxy-2-((S)-3-hydroxy-octyl)-6-oxo-cyclohexyl]-heptanoic acid]
200 | 136 | O=C(O)CCC/C=C\C[C@H]1C(=O)CC[C@@H](O)[C@@H]1/C=C/C(O)CCc1sc2ccccc2c1Cl (stereo partly drawn) [1 high Rf]
1000 | 214 | O=C(O)CCCC#CC[C@H]1C(=O)CC[C@@H](O)[C@@H]1/C=C/C(O)CCc1ccccc1 (stereo partly drawn) [Example 4, 7-[(1R,2R,3R)-3-Hydroxy-2-((E)-3-hydroxy-5-phenyl-pent-1-enyl)-6-oxo-cyclohexyl]-hept-5-ynoic acid]
400 | 67 | O=C(O)CCC/C=C\C[C@H]1C(=O)CC[C@@H](O)[C@@H]1/C=C/C(O)CCc1sc2ccccc2c1Cl (stereo partly drawn) [1 low Rf]
35 | 314 | O=C(O)CCC/C=C\C[C@@H]1[C@@H](/C=C/C(O)CCc2sc3ccccc3c2Cl)[C@H](O)CC[C@H]1Cl (stereo partly drawn) [Example 6, (Z)-7-{(1R,2R,3R,6R)-6-Chloro-2-[(E)-5-(3-chloro-benzo[b]thiophen-2-yl)-3-hydroxy-pent-1-enyl]-3-hydroxy-cyclohexyl)-hept-5-enoic acid]
3500 | 362 | O=C(O)CCCC#CC[C@H]1C(=O)CC[C@@H](O)[C@@H]1/C=C/C(O)Cc1csc2ccccc12 (stereo partly drawn) [Example 8, 7-[(1R,2R,3R)-2-((E)-4-Benzo[b]thiophen-3-yl-3-hydroxy-but-1-enyl)-3-hydroxy-6-oxo-cyclohexyl]-hept-5-ynoic acid]
100 | 11 | O=C(O)CCC/C=C\C[C@H]1C(=O)CC[C@@H](O)[C@@H]1/C=C/C(O)Cc1ccccc1 (stereo partly drawn) [Example 2, (Z)-7-[(1R,2R,3R)-3-Hydroxy-2-((E)-3-hydroxy-4-phenyl-but-1-enyl)-6-oxo-cyclohexyl]-hept-5-enoic acid]
1300 | 168 | O=C(O)CCC/C=C\C[C@H]1C(=O)CC[C@@H](O)[C@@H]1/C=C/C(O)Cc1csc2ccccc12 (stereo partly drawn) [Example 3, (Z)-7-[(1R,2R,3R)-2-((E)-4-Benzo[b]thiophen-3-yl-3-hydroxy-but-1-enyl)-3-hydroxy-6-oxo-cyclohexyl]-hept-5-enoic acid]
1800 | 456 | O=C(O)CCC/C=C\C[C@H]1C(=O)C=CC[C@@H]1/C=C/C(O)CCc1sc2ccccc2c1Cl (stereo partly drawn) [Example 10, (Z)-7-{(1R,6R)-6-[(E)-5-(3-Chloro-benzo[b]thiophen-2-yl)-3-hydroxy-pent-1-enyl]-2-oxo-cyclohex-3-enyl}-hept-5-enoic acid]
